Test results taken from patent US9163256B2, “Mutant receptors and their use in a nuclear receptor-based inducible gene expression system” (priority 2004, dated 2015).

Tests used:
Assay in all cases: cell-based
CfEcR-DEF mutant A110P = CfEcR-DEF mutant A110P (Choristoneura fumiferana, UniProt O77255, A393P); conditions: mutant A110P
Outline: (§1)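 Mutant CfEcR-DEF receptor and GAL4-driven luciferase reporter constructs transfected into mouse NIH3T3 cells with DMSO or ligand added; maintained 48 h at 37° C in 5% FBS, harvested 40 h after ligand addition. Dual-luciferase read-out; fold induction = RLU with ligand / RLU with DMSO.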

CfEcR-DEF mutant A110W = CfEcR-DEF mutant A110W (Choristoneura fumiferana, UniProt O77255, A393W); conditions: mutant A110W
Outline: as §1

CfEcR-DEF mutant F109L = CfEcR-DEF mutant F109L (Choristoneura fumiferana, UniProt O77255, F392L); conditions: mutant F109L
Outline: as §1

CfEcR-DEF mutant L234I = CfEcR-DEF mutant L234I (Choristoneura fumiferana, UniProt O77255, L517I); conditions: mutant L234I
Outline: as §1

CfEcR-DEF mutant M125C = CfEcR-DEF mutant M125C (Choristoneura fumiferana, UniProt O77255, M408C); conditions: mutant M125C
Outline: as §1

CfEcR-DEF mutant M125L = CfEcR-DEF mutant M125L (Choristoneura fumiferana, UniProt O77255, M408L); conditions: mutant M125L
Outline: as §1

CfEcR-DEF mutant M54T = CfEcR-DEF mutant M54T (Choristoneura fumiferana, UniProt O77255, M337T); conditions: mutant M54T
Outline: as §1

CfEcR-DEF mutant M54W = CfEcR-DEF mutant M54W (Choristoneura fumiferana, UniProt O77255, M337W); conditions: mutant M54W
Outline: as §1

CfEcR-DEF mutant M92E = CfEcR-DEF mutant M92E (Choristoneura fumiferana, UniProt O77255, M375E); conditions: mutant M92E
Outline: as §1

CfEcR-DEF mutant M92L = CfEcR-DEF mutant M92L (Choristoneura fumiferana, UniProt O77255, M375L); conditions: mutant M92L
Outline: as §1

CfEcR-DEF mutant R95H = CfEcR-DEF mutant R95H (Choristoneura fumiferana, UniProt O77255, R378H); conditions: mutant R95H
Outline: as §1

CfEcR-DEF mutant T52E = CfEcR-DEF mutant T52E (Choristoneura fumiferana, UniProt O77255, T335E); conditions: mutant T52E
Outline: as §1

CfEcR-DEF mutant T52L = CfEcR-DEF mutant T52L (Choristoneura fumiferana, UniProt O77255, T335L); conditions: mutant T52L
Outline: as §1

[1] = biological target: CfEcR-DEF mutant V128F/A110P (Choristoneura fumiferana, UniProt O77255, A393P/V411F); conditions: mutant V128F/A110P
Outline: as §1

CfEcR-DEF mutant V96S = CfEcR-DEF mutant V96S (Choristoneura fumiferana, UniProt O77255, V379S); conditions: mutant V96S
Outline: as §1

CfEcR-DEF mutant W238P = CfEcR-DEF mutant W238P (Choristoneura fumiferana, UniProt O77255, W521P); conditions: mutant W238P
Outline: as §1

CfEcR-DEF mutant Y120W = CfEcR-DEF mutant Y120W (Choristoneura fumiferana, UniProt O77255, Y403W); conditions: mutant Y120W
Outline: as §1

CfEcR-DEF mutant A110N = CfEcR-DEF mutant A110N (Choristoneura fumiferana, UniProt O77255, A393N); conditions: mutant A110N
Protocol: (§2) This construct was prepared in the same way as in switch 1.1 above except wild-type CfEcR-DEF was replaced with mutant CfEcR-DEF comprising a ligand binding domain comprising a substitution mutation selected from Table 1 below.
(§3) DNAs were transfected into mouse NIH3T3 cells (ATCC) as follows. Standard methods for culture and maintenance of the cells were followed. Cells were harvested and plated 96-well plates at 2,500 cells per well, in 50 μL of growth medium containing 10% fetal bovine serum (FBS). Twenty-four hours later, the cells were treated with 35 μL of serum-free growth medium containing either dimethylsulfoxide (DMSO; control) or a DMSO solution of ligand. The cells were then transfected using Superfect (Qiagen Inc.) transfection reagent. For each well, 0.625 μL of Superfect was mixed with 14.2 μL of serum-free growth medium. 0.16 μg of reporter construct and 0.04 μg of each receptor construct were added to the transfection reagent mix. The contents of the transfection mix were mixed in a vortex mixer and let stand at room temperature for 30 minutes. At the end of incubation, 15 μL of transfection mix was added to the cells. The cells were maintained at 37° C. and 5% CO2 for 48 hours in 5% FBS.
(§4) Reporter Assays: Cells were harvested 40 hours after adding ligands. 125 μL of passive lysis buffer (part of Dual-Luciferase reporter assay system from Promega Corporation) were added to each well of the […] plate. The plates were placed on a rotary shaker for 15 minutes. Twenty μL of lysate were assayed. Luciferase activity was measured using Dual-Luciferase reporter assay system from Promega Corporation following the manufacturer's instructions. Fold induction (FI) activities were calculated by dividing relative light units (“RLU”) in ligand treated cells with RLU in DMSO treated cells (untreated control).

CfEcR-DEF mutant W238E = CfEcR-DEF mutant W238E (Choristoneura fumiferana, UniProt O77255, W521E); conditions: mutant W238E
Protocol: as §2, §3, §4

CfEcR-DEF mutant L132M = CfEcR-DEF mutant L132M (Choristoneura fumiferana, UniProt O77255, L415M); format: cell-based; conditions: mutant L132M
Protocol: as §2, §3, §4

[2] = relative to max fold induction of GS-E ligand

CfEcR-DEF mutant V128F/A110P, sequence (P28702 299-449, stated change not applied): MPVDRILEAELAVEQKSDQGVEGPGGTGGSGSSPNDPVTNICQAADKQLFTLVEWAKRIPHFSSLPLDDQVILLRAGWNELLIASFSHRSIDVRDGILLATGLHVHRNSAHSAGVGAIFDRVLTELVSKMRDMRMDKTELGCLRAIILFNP
CfEcR-DEF mutant V128F/A110P, sequence (O77255 entry or part of it A393P/V411F): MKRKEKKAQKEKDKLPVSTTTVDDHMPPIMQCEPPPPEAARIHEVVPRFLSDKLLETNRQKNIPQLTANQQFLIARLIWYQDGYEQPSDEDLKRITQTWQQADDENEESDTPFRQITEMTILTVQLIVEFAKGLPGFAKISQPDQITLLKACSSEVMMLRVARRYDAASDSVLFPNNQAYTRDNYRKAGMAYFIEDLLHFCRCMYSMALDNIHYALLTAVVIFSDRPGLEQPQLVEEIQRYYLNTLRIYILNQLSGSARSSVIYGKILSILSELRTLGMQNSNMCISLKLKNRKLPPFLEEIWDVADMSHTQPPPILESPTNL
CfEcR-DEF mutant V96S, sequence (O77255 entry or part of it V379S): as the sequence (O77255 entry or part of it A393P/V411F) above, with V161S, P175A, F193V counted along it
CfEcR-DEF mutant V96S, sequence (P28702 299-449, further chain): as the sequence (P28702 299-449, stated change not applied) above
CfEcR-DEF mutant T52E, sequence (O77255 entry or part of it T335E): as the sequence (O77255 entry or part of it A393P/V411F) above, with T117E, P175A, F193V counted along it
CfEcR-DEF mutant T52E, sequence (P28702 299-449, further chain): as the sequence (P28702 299-449, stated change not applied) above
CfEcR-DEF mutant A110P, sequence (O77255 entry or part of it A393P): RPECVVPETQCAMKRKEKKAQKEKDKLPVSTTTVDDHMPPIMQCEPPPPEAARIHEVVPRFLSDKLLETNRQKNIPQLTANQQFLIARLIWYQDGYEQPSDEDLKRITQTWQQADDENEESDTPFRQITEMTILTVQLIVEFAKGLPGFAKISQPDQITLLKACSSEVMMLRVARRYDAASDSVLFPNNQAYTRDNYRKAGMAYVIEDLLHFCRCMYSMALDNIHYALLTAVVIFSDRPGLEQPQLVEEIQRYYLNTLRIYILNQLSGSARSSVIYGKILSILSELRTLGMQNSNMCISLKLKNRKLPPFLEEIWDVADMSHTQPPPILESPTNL
CfEcR-DEF mutant A110P, sequence (P28702 299-449, stated change not applied, further chain): as the sequence (P28702 299-449, stated change not applied) above
CfEcR-DEF mutant Y120W, sequence (O77255 entry or part of it Y403W): as the sequence (O77255 entry or part of it A393P/V411F) above, with P175A, Y185W, F193V counted along it
CfEcR-DEF mutant Y120W, sequence (P28702 299-449, further chain): as the sequence (P28702 299-449, stated change not applied) above
CfEcR-DEF mutant R95H, sequence (P28702 299-449): as the sequence (P28702 299-449, stated change not applied) above
CfEcR-DEF mutant R95H, sequence (O77255 entry or part of it R378H): as the sequence (O77255 entry or part of it A393P/V411F) above, with R160H, P175A, F193V counted along it
CfEcR-DEF mutant M92E, sequence (P28702 299-449): as the sequence (P28702 299-449, stated change not applied) above
CfEcR-DEF mutant M92E, sequence (O77255 entry or part of it M375E): as the sequence (O77255 entry or part of it A393P) above, with M169E, P187A counted along it
CfEcR-DEF mutant W238E, sequence (P28702 299-449): as the sequence (P28702 299-449, stated change not applied) above
CfEcR-DEF mutant W238E, sequence (O77255 entry or part of it W521E): as the sequence (O77255 entry or part of it A393P/V411F) above, with P175A, F193V, W303E counted along it
CfEcR-DEF mutant M125L, sequence (P28702 299-449): as the sequence (P28702 299-449, stated change not applied) above
CfEcR-DEF mutant M125L, sequence (O77255 entry or part of it M408L): as the sequence (O77255 entry or part of it A393P/V411F) above, with P175A, M190L, F193V counted along it

CC(C)CC[C@@H](O)[C@](C)(O)[C@H]1CC[C@@]2(O)C3=CC(=O)[C@@H]4C[C@@H](O)[C@@H](O)C[C@]4(C)[C@H]3CC[C@]12C [PonA, ponasterone A]
EC50 (CfEcR-DEF mutant A110P; read-out: EC50): > 33 µM
Rel Max FI (CfEcR-DEF mutant A110P; [2]): 0
Rel Max FI (CfEcR-DEF mutant A110W): 0.01
EC50 (CfEcR-DEF mutant A110W; read-out: EC50): > 33 µM
Rel Max FI (CfEcR-DEF mutant F109L): 0.03
EC50 (CfEcR-DEF mutant F109L; read-out: EC50): > 33 µM
Rel Max FI (CfEcR-DEF mutant L234I): 0.56
EC50 (CfEcR-DEF mutant L234I; read-out: EC50): ~7 µM
Rel Max FI (CfEcR-DEF mutant M125C): 0.28
Rel Max FI (CfEcR-DEF mutant M125L): 0
EC50 (CfEcR-DEF mutant M125L; read-out: EC50): > 33 µM
EC50 (CfEcR-DEF mutant M54T; read-out: EC50): 9.46 µM
Rel Max FI (CfEcR-DEF mutant M54T; [2]): 0.5
Rel Max FI (CfEcR-DEF mutant M54W): 0.46
EC50 (CfEcR-DEF mutant M54W; read-out: EC50): ~10 µM
Rel Max FI (CfEcR-DEF mutant M92E): 0.01
EC50 (CfEcR-DEF mutant M92E; read-out: EC50): > 33 µM
Rel Max FI (CfEcR-DEF mutant M92L): 0
EC50 (CfEcR-DEF mutant M92L; read-out: EC50): > 33 µM
Rel Max FI (CfEcR-DEF mutant R95H): 0.03
EC50 (CfEcR-DEF mutant R95H; read-out: EC50): > 33 µM
Rel Max FI (CfEcR-DEF mutant T52E): 0
EC50 (CfEcR-DEF mutant T52E; read-out: EC50): > 33 µM
EC50 (CfEcR-DEF mutant T52L; read-out: EC50): 5.03 µM
Rel Max FI (CfEcR-DEF mutant T52L; [2]): 0.54
Rel Max FI [1]: 0
EC50 ([1]; read-out: EC50): > 33 µM
Rel Max FI [1, 2]: 0.00
EC50 (CfEcR-DEF mutant V96S; read-out: EC50): ~2 µM
Rel Max FI (CfEcR-DEF mutant V96S; [2]): 0.92
EC50 (CfEcR-DEF mutant W238P; read-out: EC50): ~3.3 µM
Rel Max FI (CfEcR-DEF mutant W238P; [2]): 0.73
Rel Max FI (CfEcR-DEF mutant Y120W): 0.69
EC50 (CfEcR-DEF mutant Y120W; read-out: EC50): ~10 µM
EC50 (CfEcR-DEF mutant A110N; read-out: EC50): > 33 µM
Rel Max FI (CfEcR-DEF mutant A110N; [2]): 0
Rel Max FI (CfEcR-DEF mutant W238E): 0
EC50 (CfEcR-DEF mutant W238E; read-out: EC50): > 33 µM
Rel Max FI (CfEcR-DEF mutant L132M): 0.01
Rel Max FI (CfEcR-DEF mutant L132M; [2]): 0.57
